In brackets after ≈: the same amount, converted by molar mass. Like-named read-outs stand apart in the source and are kept apart here. Non-standard residues stand in square brackets, D forms with d. Residues, ends and D or L forms follow the SMILES beside them.
What was measured:
[1] = system: Enterobacter cloacae; assay: microbe, parasite or virus in culture
Description: (§1) Antimicrobial activity was determined for all peptides on E. coli W3110, P. aeruginosa PAO1, A. baumannii ATCC19606, K. pneumoniae NCTC418, and methicillin-resistant S. aureus COL and for selected peptides on P. aeruginosa PA14 and the polymyxin B-resistant derivatives PA14 4.13, PA14 4.18, and PA14 2P4 as well as the clinical isolates ZEM-1A and ZEM9A, K. pneumoniae OXA-48, Enterobacter cloacae, Stenotrophomonas maltophilia, B. cenocepacia, and Staphylococus epidermis. To determine the MIC, the broth microdilution method was used.[75] A single bacterial colony was grown in LB medium overnight at 37 °C and 180 rpm shaking. The compounds were prepared as stock solutions of 2 mg/mL in sterilized milliQ deionized water, added to the first well of 96-well sterile, polypropylene round-bottom microtiter plates (TPP, untreated, Corning Incorporated, Kennebunk, USA), and diluted serially by 1/2. […] The bacterial inoculum was prepared by measuring the absorbance of the overnight culture, which was diluted to concentration of the bacteria was quantified by measuring absorbance at 600 nm and diluted to an OD600 of 0.022 in MH medium pH 7.4 (Sigma-Aldrich, Buchs, Switzerland). The sample solutions (150 μL) were mixed with 4 μL of diluted bacterial suspension with a final inoculation of about 5 × 10^5 CFU. For each test, two columns of the plate were kept for sterility control (MH medium only) and growth control (MH medium with bacterial inoculum, no compound). […] The plates were incubated at 37 °C for 16–20 h under static conditions. 15 μL of 3-(4,5-dimethylthiazol-2-yl)-2,5-diphenyltetrazolium bromide (MTT)[76] (1 mg/mL in sterilized milliQ deionized water) was added to each well, and the plates were incubated at room temperature until MTT staining was completed. The MIC was defined as the lowest concentration of the dendrimer that inhibits the visible growth of the tested bacteria (yellow) with the unaided eye.

[2] = system: P. aeruginosa ZEM-1A; assay: microbe, parasite or virus in culture; settings: ZEM-1A
Description: as §1

[3] = EYPC vesicle leakage assay; assay type: biochemical; settings: 10 μg/mL of compound; 10 mM TRIS, 107 mM NaCl, pH 7.4
Description: 5(6)-carboxyfluorescein (CF) was purchased from Sigma. EYPC, EYPG, and a Mini-Extruder were purchased from Avanti Polar Lipids. Egg PC or Egg PG thin lipid layers were prepared by evaporating a solution of 100 mg of EYPC or EYPG in 4 mL of MeOH/CHCl3 (1:1) on a rotary evaporator at room temperature and then dried in vacuo overnight. […] Extravesicular components were removed by gel filtration (Sephadex G-50) with 10 mM TRIS, 107 mM NaCl, pH 7.4 buffer. Final conditions: ∼2.5 mM PC or PG; inside: 50 mM CF, 10 mM TRIS, 10 mM NaCl, pH 7.4 buffer; outside: 10 mM TRIS, 107 mM NaCl, pH 7.4. […] The CF efflux was monitored at λem 517 nm (λex 492 nm) as a function of time after addition of the desired volume of peptide from 2 mg/mL stock in mQ water at t = 45 s, 10 and 50 μg/mL were monitored for both EYPC and EYPG. […] Fluorescence intensities were then normalized to the maximal emission intensity using I(t) = (It – I0)/(I∞ – I0) where I0 = It at peptide addition, I∞ = It at saturation of lysis.

[4] = system: S. aureus COL MRSA
Description: as §1

[5] = system: K. pneumoniae NCTC418
Description: as §1

[6] = system: A. baumannii ATCC19606
Description: as §1

[7] = system: P. aeruginosa PAO1
Description: as §1

[8] = system: E. coli W3110
Description: as §1

[9] = system: human red blood cells; assay: Hemolysis assay (MHC)
Description: To determine the MHC stock solutions, 8 mg/mL peptide in PBS (pH 7.4) was prepared, and 50 μL was diluted serially by l/2 in 50 μL of PBS (pH 7.4) in a 96-well plate (Costar or Nunc, polystyrene, untreated). […] Plasma was discarded, and the pellet was re-suspended in a 15 mL Falcon tube in 5 mL of PBS. The washing was repeated three times, and the remaining pellet was re-suspended in 10 mL of PBS. The hRBC suspension (50 μL) was added to each well, and the plate was incubated at room temperature for 4 h. MHC end points were determined by visual determination of the wells after the incubation period. Controls on each plate included a blank medium control (50 μL PBS + 50 μL of hRBCs suspension) and a hemolytic activity control (mQ-deionized water 50 μL + 50 μL hRBC suspension).

[10] = MH broth pH 7.4, 16–20 h, 37 °C
[11] = supplementary CSV, ranges of Table 1 given as one number

Row | Molecule | EYPC vesicle leakage (%) [3] | MIC S. aureus COL MRSA [4, 10] | MIC K. pneumoniae NCTC418 [5, 10] | MIC A. baumannii ATCC19606 [6, 10] | MIC A. baumannii ATCC19606 [6, 11] | MIC P. aeruginosa PAO1 [7, 10] | MIC P. aeruginosa PAO1 [7, 11] | MIC E. coli W3110 [8, 10] | MIC S. aureus COL [4, 11] | further results
1 | CC(C)C[C@H](NC(=O)[C@H](CC(C)C)NC(=O)[C@H](CCCCN)NC(=O)[C@H](CC(C)C)NC(=O)[C@H](CC(C)C)NC(=O)[C@@H](CCCCN)NC(=O)[C@H](N)CCCCN)C(=O)N[C@@H](CCCCN)C(=O)N[C@@H](CC(C)C)C(=O)N[C@@H](CC(C)C)C(=O)N[C@H](CC(C)C)C(N)=O [HP7] |  |  |  |  |  |  |  |  |  | MIC E. cloacae [1]: 2 µg/mL (≈ 1.51 µM); MIC ZEM-1A ([2]; pH 7.4): 1 µg/mL (≈ 0.757 µM)
2 | CC(C)C[C@H](NC(=O)[C@H](CC(C)C)NC(=O)[C@H](CC(C)C)NC(=O)[C@H](CCCCN)NC(=O)[C@H](CC(C)C)NC(=O)[C@H](CC(C)C)NC(=O)[C@H](CCCCN)NC(=O)[C@@H](CC(C)C)NC(=O)[C@@H](CC(C)C)NC(=O)[C@@H](CCCCN)NC(=O)[C@@H](N)CCCCN)C(N)=O [HP8, KkllKLLKLLL] |  |  |  |  |  |  |  |  |  | MIC P. aeruginosa ZEM-1A [2]: 2 µg/mL (≈ 1.51 µM)
3 | CC(C)C[C@H](NC(=O)[C@H](CC(C)C)NC(=O)[C@@H](CC(C)C)NC(=O)[C@H](CCCCN)NC(=O)[C@@H](CC(C)C)NC(=O)[C@H](CC(C)C)NC(=O)[C@@H](CCCCN)NC(=O)[C@H](CC(C)C)NC(=O)[C@@H](CC(C)C)NC(=O)[C@H](CCCCN)NC(=O)[C@@H](N)CCCCN)C(N)=O [HP15, KKlLkLlKlLL] | 3% | >64 µg/mL | >64 µg/mL | 32 to 64 µg/mL | 48 µg/mL (≈ 36.3 µM) | 16 µg/mL (≈ 12.1 µM) | 16 µg/mL (≈ 12.1 µM) | 8 µg/mL (≈ 6.05 µM) |  | 
4 | CC(C)C[C@H](NC(=O)[C@H](CC(C)C)NC(=O)[C@@H](CCCCN)NC(=O)[C@H](CC(C)C)NC(=O)[C@H](CC(C)C)NC(=O)[C@@H](CCCCN)NC(=O)[C@H](N)CCCCN)C(=O)N[C@@H](CCCCN)C(=O)N[C@@H](CC(C)C)C(=O)N[C@H](CC(C)C)C(=O)N[C@H](CC(C)C)C(N)=O [HP26, kkLLkLLKLll] | 6% | 32 µg/mL (≈ 24.2 µM) | >64 µg/mL | 16 µg/mL (≈ 12.1 µM) | 16 µg/mL (≈ 12.1 µM) | 4 µg/mL (≈ 3.03 µM) | 4 µg/mL (≈ 3.03 µM) | 4 µg/mL (≈ 3.03 µM) | 32 µg/mL (≈ 24.2 µM) | 
5 | CC(C)C[C@H](NC(=O)[C@H](CCCCN)NC(=O)[C@H](N)CCCCN)C(=O)N[C@@H](CC(C)C)C(=O)N[C@H](CCCCN)C(=O)N[C@H](CC(C)C)C(=O)N[C@H](CC(C)C)C(=O)N[C@@H](CCCCN)C(=O)N[C@@H](CC(C)C)C(=O)N[C@@H](CC(C)C)C(=O)N[C@H](CC(C)C)C(N)=O [HP28, kKLLkllKLLl] | 3% | 32 µg/mL (≈ 24.2 µM) | >64 µg/mL |  |  | 4 µg/mL (≈ 3.03 µM) | 4 µg/mL (≈ 3.03 µM) | 2 to 4 µg/mL | 32 µg/mL (≈ 24.2 µM) | MIC E. coli W3110 [8, 11]: 3 µg/mL (≈ 2.27 µM)
6 | CC(C)C[C@H](NC(=O)[C@@H](CC(C)C)NC(=O)[C@H](CCCCN)NC(=O)[C@@H](CC(C)C)NC(=O)[C@H](CC(C)C)NC(=O)[C@@H](CCCCN)NC(=O)[C@H](CC(C)C)NC(=O)[C@@H](CC(C)C)NC(=O)[C@H](CCCCN)NC(=O)[C@H](N)CCCCN)C(=O)N[C@H](CC(C)C)C(N)=O [HP31, kKlLkLlKlLl] |  | 32 µg/mL (≈ 24.2 µM) | >64 µg/mL | 32 µg/mL (≈ 24.2 µM) | 32 µg/mL (≈ 24.2 µM) | 8 µg/mL (≈ 6.05 µM) | 8 µg/mL (≈ 6.05 µM) | 8 µg/mL (≈ 6.05 µM) | 32 µg/mL (≈ 24.2 µM) | 
7 | CC[C@H](C)[C@H](NC(=O)[C@@H](NC(=O)[C@@H](NC(=O)[C@@H](CCCNC(=N)N)NC(=O)[C@@H](NC(=O)[C@@H](NC(=O)[C@@H](CCCNC(=N)N)NC(=O)[C@@H](NC(=O)[C@@H](NC(=O)[C@@H](CCCNC(=N)N)NC(=O)[C@H](N)CCCNC(=N)N)[C@@H](C)CC)[C@@H](C)CC)[C@@H](C)CC)[C@@H](C)CC)[C@@H](C)CC)[C@@H](C)CC)C(N)=O [HP37, rrIIrIIrIII] (H-[dR][dR]II[dR]II[dR]III-NH2) |  |  |  |  |  |  |  |  |  | MHC [9]: 250 µg/mL; MHC ([9]; pH 7.4): 250 µg/mL; MIC S. aureus COL ([4]; COL): 12 µg/mL (≈ 8.37 µM); MIC S. aureus COL MRSA ([4]; COL, pH 7.4): 8 to 16 µg/mL; MIC K. pneumoniae NCTC418 ([5]; NCTC418): 48 µg/mL (≈ 33.5 µM); MIC K. pneumoniae NCTC418 ([5]; NCTC418, pH 7.4): 32 to 64 µg/mL; MIC A. baumannii ATCC19606 ([6]; ATCC19606): 12 µg/mL (≈ 8.37 µM); MIC A. baumannii ATCC19606 ([6]; ATCC19606, pH 7.4): 8 to 16 µg/mL; MIC P. aeruginosa PAO1 ([7]; PAO1): 6 µg/mL (≈ 4.18 µM); MIC P. aeruginosa PAO1 ([7]; PAO1, pH 7.4): 4 to 8 µg/mL
8 | CC(C)C[C@@H](NC(=O)[C@@H](CC(C)C)NC(=O)[C@@H](CC(C)C)NC(=O)[C@@H](CCCCN)NC(=O)[C@@H](CC(C)C)NC(=O)[C@@H](CC(C)C)NC(=O)[C@@H](CCCCN)NC(=O)[C@@H](CC(C)C)NC(=O)[C@@H](CC(C)C)NC(=O)[C@@H](CCCCN)NC(=O)[C@H](N)CCCCN)C(N)=O [dln65, kkllkllklll] |  | 2 to 4 µg/mL | 4 µg/mL (≈ 3.03 µM) | 4 µg/mL (≈ 3.03 µM) | 4 µg/mL (≈ 3.03 µM) | 2 to 4 µg/mL | 3 µg/mL (≈ 2.27 µM) | 2 to 4 µg/mL | 3 µg/mL (≈ 2.27 µM) | MIC K. pneumoniae NCTC418 [5, 11]: 4 µg/mL (≈ 3.03 µM); MIC E. coli W3110 [8, 11]: 3 µg/mL (≈ 2.27 µM)
9 | H-RRIIRIIRIII-NH2 [HP36] |  |  |  |  |  |  |  |  |  | MHC [9]: 63 µg/mL; MHC ([9]; pH 7.4): 62.5 µg/mL; MIC S. aureus COL ([4]; COL): 24 µg/mL; MIC S. aureus COL MRSA ([4]; COL, pH 7.4): 16 to 32 µg/mL; MIC A. baumannii ATCC19606 ([6]; ATCC19606): 12 µg/mL; MIC A. baumannii ATCC19606 ([6]; ATCC19606, pH 7.4): 8 to 16 µg/mL
10 | H-RRLLRLLRLLL-NH2 [HP32] |  |  |  |  |  |  |  |  |  | MHC ([9]; human red blood cells in PBS pH 7.4, 4 h, room temperature): 15.6 µg/mL; MHC ([9]; supplementary CSV, human red blood cells): 16 µg/mL

From publication PMC10258794, “To Fold or Not to Fold: Diastereomeric Optimization of an α-Helical Antimicrobial Peptide” (Journal of Medicinal Chemistry, 2023)
